Results on 5 molecules are retold here after patent US20050244959A1, “Methods for inducing active hepatocytes proliferation, kits using such methods and uses of said kits” (priority 2004, published 2005).

The test system of series [1] is rat hepatocytes in coculture. Put plainly: Inhibition of extracellular matrix remodeling: hepatocyte DNA synthesis in coculture. It counts as cell-based. As to conditions: phenanthroline 1 μM added to cocultures treated with EGF for 24 h and then with TNFα. The procedure: (§1) Hepatocyte DNA synthesis is measured by using BrdU (bromodeoxyuridine) labeling. BrdU incorporation in DNA is detected by immunohistochemistry using the Cell Proliferation Kit (Amersham). The number of labeled hepatocytes is determined (5 fields per dish) in order to calculate the percentage of BrdU incorporation.
7 day-old cocultures are stimulated with EGF and then with TNFα for 24 h periods. Factors are added in a FCS-free medium. Inhibition of extracellular matrix degradation is induced with 1,10-Phenanthroline monohydrate (Sigma), a chelator of metal ions which inhibits the metalloproteinase activity. This compound is soluble in dimethylsulfoxyde and is used at 1 μM.

For series [2], the system named is rat hepatocytes in coculture with rat biliary epithelial cells (RLEC). Put plainly: Hepatocyte DNA synthesis by BrdU labeling in rat hepatocyte/RLEC coculture. It counts as cell-based. Here is the method: Freshly isolated hepatocytes are seeded on plastic dishes at 7×10^4 cells per cm2 in a mixture of 75% minimal essential medium and 25% 199 medium (Eurobio), supplemented with 2 mM L-glutamine, 0,1% bovine serum albumin (BSA, Sigma), 100 μg/ml streptomycin, 100 Ul/ml penicillin, 5 μg/ml bovine insulin (Sigma), 1.4×10^-6 M hydrocortisone hemisuccinate (Roussel) and 10% fetal calf serum (Hyclone). This medium is called “basal medium”.
After cell adhesion, approximately 4 hours after seeding, RLEC, previously trypsinized, are added on spread hepatocytes at 2×10^5 cells per cm2 in basal medium.
Twenty four hours later, the medium is removed and replaced by a medium supplemented in 7×10^-5 M hydrocortisone hemisuccinate, which promotes hepatocyte differentiation and survival. This medium is renewed everyday for 4 days. Then, the concentration of hydrocortisone hemisuccinate is decreased to 7×10^-6 M for 2 days.
7 day-old cocultures are stimulated with human recombinant EGF (50 ng/ml, Promega) and human recombinant TNF-alpha (10 ng/ml, Promokine) in basal medium for 3 to 10 days. The medium is renewed everyday. As control, cocultures exposed to TNFα alone or EGF are used.
To induce several rounds of hepatocyte proliferation, 7 day-old cocultures are stimulated with human recombinant EGF (50 ng/ml) and human recombinant TNFα (10 ng/ml) in basal medium, for 10 days. Then, a pause in stimulation is performed for 4 days, during which cells are maintained in medium supplemented in 7×10^-6 M hydrocortisone hemisuccinate. Next, cocultures are treated with EGF and TNFα in basal medium for 10 days.
as §1

The subject of a further series is human hepatocytes. Kind of series: DNA synthesis by BrdU incorporation in pure culture of human hepatocytes. It counts as cell-based. Particulars: stimulated 24 h after seeding for 48 h. The procedure:
Freshly isolated hepatocytes are seeded on plastic dishes at 5×10^4 cells per cm2 in a William's E medium (Eurobio) supplemented with 2 mM L-glutamine (Gibco), 0,1% bovine serum albumin (BSA, Sigma), 100 μg/ml streptomycin, 100 Ul/ml penicillin (Eurobio), 50 μg/ml gentamycine (Sigma), 5 μg/ml bovine insulin (Sigma), and 10% fetal calf serum (HyClone).
Twenty four hours after seeding, human hepatocytes are stimulated with recombinant human TNFα (Promokine, 10 ng/ml) and recombinant human EGF (Promega, 50 ng/ml). These factors are added in William's E medium (Eurobio) supplemented with 2 mM L-glutamine (Gibco), 0,1% bovine serum albumin (BSA, Sigma), 100 μg/ml streptomycin, 100 Ul/ml penicillin (Eurobio), 50 μg/ml gentamycine (Sigma), 5 μg/ml bovine insulin (Sigma), 1.4×10^-6 M hydrocortisone hemisuccinate (Roussel), 10% fetal calf serum. This medium is renewed every day and stimulation lasts at least 2 days.
BrdU is incubated in medium during the last 24 h of treatment. Then pure cultures are fixed with a mixture of 90% ethanol, 5% acid acetic and 5% water for 20 min at 4° C. BrdU incorporation in DNA is detected by immunohistochemistry using the Cell Proliferation kit (Amersham). Next, cytoplasm and nuclei are stained in blue with Hemalun (Merck). The numbers of labeled hepatocytes are determined (5 fields per dish) in order to calculate percentage of BrdU incorporation.

The next series concerns extracellular matrix. Kind of series: Extracellular matrix deposition analysis (reticulin staining) in coculture. It counts as cell-based, rat. As to conditions: 7 day-old cocultures. The procedure: Matrix fibers are visualized in cocultures fixed with a mixture of 4% paraformaldehyde and 2.5% glutaraldehyde in 0.1 M cacodylate buffer (pH 7.4) for 15 min at 4° C. Then the reticulin staining by silver impregnation of extracellular matrix is carried out according to the method of Gordon and Sweets and applied to coculture (Exp Cell Res 1984; J Cell Biol 1991). Matrix components are analysed by immunostaining using antibodies against fibronectin, collagen I, collagen III)

In the next series the test system is pro-MMP9. Put plainly: Gelatin zymography of coculture supernatant. It counts as cell-based, rat. Particulars: FCS-free medium, 24 h. The procedure: 7 day-old cocultures are stimulated with different combinations of TNFα and/or EGF in a FCS-free medium for 24 h. Twenty μl of supernatant are electrophoresed under nonreducing conditions on 12% SDS-polyacrylamide gel containing 0,1% bovine skin gelatin (Sigma) as substrate. After electrophoresis, the gel is washed twice with 2.5% Triton X-100 for 10 min and twice with water for 20 min. After incubation overnight at 37° C. in reaction buffer (50 mM Tris-HCL, pH 8; 5 mM CaCl2; 5 μM ZnCl2), the gel is stained with Coomassie Brillant Blue and destained. Clear zones in blue background indicate the presence of metalloproteinase pro-MMP9 activity; 5% FCS is used as positive control.

Series [3] has as its system cyclin D1, EF21, cyclin E, Cdk1. Put plainly: Expression of cell cycle markers in coculture. Particulars: successive 24 h treatments. It counts as cell-based, rat. The procedure:
A test is provided to analyze the mechanism of cell cycle blockage or progression (early G1, Late G1, S and M) induced by drugs by studying the expression of cell cycle markers which sign different steps of cell cycle (cyclin D1, E2 F1, Cdk2, cyclin E, Cdk1, cyclin B, PCNA, alpha tubulin). Successive 24 h treatments of cocultures by molecules added alone or in combination with EGF or TNFα are used to determine the effect of each molecule.
Cells are arrested at each time (24 and 48 h) and protein extracts are prepared and separated in SDS-polyacrylamide gel. Cell cycle markers are analyzed by western blot using corresponding antibodies.

Consider `O.c1cnc2c(c1)ccc1cccnc12` [phenanthroline, 1,10-Phenanthroline monohydrate], for which the DNA synthesis entry in series [1] was “strongly decreased”.
Regarding “EGF: human recombinant EGF (50 ng/ml, Promega), growth factor”, the “BrdU incorporation under permanent exposure” value in series [2] (continued after a first 10 day-stimulation with TNFα/EGF, from day 10) is “gradually decreases”. Also, the “hepatocytes with DNA synthesis (S phase entry)” value with human hepatocytes came out at 8%. In addition, the “extracellular matrix (ECM) deposition” value in the series on extracellular matrix is reported as “very abundant”. In addition, the “Pro-MMP9 (92 Kda) expression by zymography” value in the series on pro-MMP9 is given as “not detected”. Also, in series [3], the “effect on hepatocyte cell cycle progression” value is on record as “promotes hepatocyte cell cycle progression to late G1”.
On to “TGFα: transforming growth factor alpha (20 ng/ml), replacing EGF”, for which, in series [2] (with TNFα, HGF 25 ng/ml, TGFα 20 ng/ml, compared with TNFα/EGF), the “DNA synthesis when EGF is replaced by another growth factor” value was “highest DNA synthesis”.
For TNFα, the “extracellular matrix (ECM) deposition” value in the series on extracellular matrix is on record as “very sparse”. Also, the “Pro-MMP9 (92 Kda) expression by zymography” value in the series with pro-MMP9 is listed as “expressed”. Also, in series [3], the “effect on hepatocyte cell cycle progression” value is recorded as “allows S entry through Cdk1 induction”.
Turning to “interleukin 6: cytokine known to modulate extracellular matrix remodeling, used at 5 ng/ml”, the “hepatocyte response to growth factors (DNA replication)” value in series [2] (coculture, 5 ng/ml) was “allow hepatocytes to respond to growth factors”.
